Results as given in ChEMBL document CHEMBL1201862, “PubChem BioAssay data set” (2004).
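Each compound was tested at five concentrations against cells in 96-well plates for 48 hours. GI50: concentration for 50% inhibition of growth.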 Active and inactive are the calls of the source. Cut-off read from the data, not from the text of the source: active = GI50 up to about 1.1 µM and inactive = higher.

How the values were obtained:
Assay in all cases: growth of human tumour cells (NCI), 48 h
SNB-75 = system: SNB-75
SK-MEL-2 = system: SK-MEL-2
HCC 2998 = system: HCC 2998
CCRF-CEM = system: CCRF-CEM
HCT-116 = system: HCT-116
M14 = system: M14
SK-MEL-5 = system: SK-MEL-5
A498 = system: A498
SK-MEL-28 = system: SK-MEL-28
UO-31 = system: UO-31
A549 = system: A549
CAKI-1 = system: CAKI-1
SR = system: SR
OVCAR-4 = system: OVCAR-4
RPMI-8226 = system: RPMI-8226

Measured: GI50

CCN(CC)/[N+]([O-])=N/OCC(C)O (stereo not drawn)
inactive: SNB-75 > 100 µM | SK-MEL-2 > 100 µM | HCC 2998 > 100 µM | CCRF-CEM > 100 µM | HCT-116 > 100 µM | M14 > 100 µM | SK-MEL-5 > 100 µM | A498 > 100 µM | SK-MEL-28 > 100 µM | UO-31 > 100 µM | A549 > 100 µM | CAKI-1 > 100 µM | SR > 100 µM

C=CC/N=C1/N=C(CC(=O)OCC)CS1
inactive: SNB-75 > 100 µM | OVCAR-4 > 100 µM | SK-MEL-2 > 100 µM | HCC 2998 > 100 µM | CCRF-CEM > 100 µM | HCT-116 > 100 µM | M14 > 100 µM | SK-MEL-5 > 100 µM | A498 > 100 µM | SK-MEL-28 > 100 µM | UO-31 > 100 µM | A549 > 100 µM | CAKI-1 > 100 µM

CN1CCC(O)C(CNC23CC4CC(CC(C4)C2)C3)C1 (stereo not drawn)
inactive: OVCAR-4 > 100 µM | SK-MEL-2 > 100 µM | CCRF-CEM > 100 µM | SK-MEL-5 > 100 µM | A498 > 100 µM | SK-MEL-28 > 10 µM | UO-31 > 100 µM | A549 > 100 µM | CAKI-1 > 100 µM | SR > 100 µM

O=C(N/C(=C\c1cc(Cl)ccc1Cl)c1nc2ccccc2[nH]1)c1ccccc1
inactive: OVCAR-4 30.1 µM | SK-MEL-2 52 µM | HCC 2998 17.9 µM | CCRF-CEM 25.9 µM | M14 27.9 µM | SK-MEL-5 21.7 µM | SK-MEL-28 45.3 µM | UO-31 20.2 µM | A549 35.1 µM | CAKI-1 30.8 µM | SR 24.4 µM

Cc1c(Cl)cccc1NC(=O)C(=O)C(C(=O)c1ccccc1-c1ccccc1)C1OC(=O)c2ccccc21 (stereo not drawn)
inactive: SNB-75 19.3 µM | SK-MEL-2 16.1 µM | HCC 2998 17.1 µM | CCRF-CEM 19.8 µM | HCT-116 12.5 µM | M14 17 µM | SK-MEL-5 15.7 µM | RPMI-8226 13.8 µM | SK-MEL-28 19 µM | UO-31 20.4 µM | A549 22.4 µM

CC1CCC[P+](Cc2ccccc2)(c2ccccc2)CC1 (stereo not drawn)
inactive: SNB-75 40.3 µM | OVCAR-4 15.8 µM | SK-MEL-2 21.6 µM | HCC 2998 29.1 µM | CCRF-CEM 42.3 µM | M14 35.9 µM | SK-MEL-5 14.5 µM | A498 > 100 µM | RPMI-8226 7.23 µM | SK-MEL-28 41.2 µM | UO-31 > 100 µM | A549 > 100 µM

Cc1cc(N(CCC#N)CCC#N)ccc1/C=C1N=C(/C=C\c2ccccc2)N(c2ccc(C(=O)O)cc2)C\1=O
inactive: SNB-75 > 100 µM | OVCAR-4 > 100 µM | SK-MEL-2 > 100 µM | CCRF-CEM > 100 µM | HCT-116 > 100 µM | M14 > 100 µM | SK-MEL-5 > 100 µM | A498 > 100 µM | RPMI-8226 > 100 µM | SK-MEL-28 > 100 µM | UO-31 > 100 µM | A549 > 100 µM | CAKI-1 > 100 µM | SR > 100 µM

CCOCN1COCN(C)C1=O
inactive: SNB-75 > 100 µM | OVCAR-4 > 100 µM | SK-MEL-2 > 100 µM | HCC 2998 > 100 µM | CCRF-CEM > 100 µM | HCT-116 > 100 µM | M14 > 100 µM | SK-MEL-5 > 100 µM | A498 > 100 µM | RPMI-8226 > 100 µM | SK-MEL-28 > 100 µM | UO-31 > 100 µM | A549 > 100 µM | CAKI-1 > 100 µM

Cn1c(=O)nc2n(-c3cc(Cl)ccc3Cl)c3ccccc3nc-2c1=O
inactive: SNB-75 11.2 µM | OVCAR-4 4.33 µM | SK-MEL-2 5.62 µM | HCC 2998 2.68 µM | CCRF-CEM 4.02 µM | HCT-116 4.33 µM | M14 3.63 µM | SK-MEL-5 1.95 µM | A498 18.6 µM | RPMI-8226 4.71 µM | UO-31 13.6 µM | A549 4 µM | CAKI-1 7.19 µM

O=c1c2ccccc2n2n1CC(O)C2 (stereo not drawn)
inactive: SNB-75 > 100 µM | OVCAR-4 > 100 µM | SK-MEL-2 > 100 µM | HCC 2998 > 100 µM | CCRF-CEM > 100 µM | HCT-116 > 100 µM | M14 > 100 µM | SK-MEL-5 > 100 µM | RPMI-8226 > 100 µM | SK-MEL-28 > 100 µM | UO-31 > 100 µM | A549 > 100 µM | CAKI-1 > 100 µM | SR > 100 µM

NNC(=O)N/N=C1\C(=O)N(c2nccs2)C(=O)C(=O)C1c1nc2ccccc2s1 (stereo not drawn)
inactive: SNB-75 > 100 µM | OVCAR-4 > 100 µM | SK-MEL-2 > 100 µM | HCC 2998 > 100 µM | HCT-116 > 100 µM | M14 > 100 µM | RPMI-8226 > 100 µM | SK-MEL-28 > 100 µM | UO-31 > 100 µM | A549 > 100 µM | CAKI-1 > 100 µM

COC1OC(CO)C(O)C1N (stereo not drawn)
inactive: SNB-75 > 100 µM | OVCAR-4 > 100 µM | CCRF-CEM > 100 µM | HCT-116 > 100 µM | M14 > 100 µM | SK-MEL-5 > 100 µM | A498 > 100 µM | SK-MEL-28 > 100 µM | A549 > 100 µM | CAKI-1 > 100 µM | SR > 100 µM

Cc1ccc(/C=C/C(=O)C(C)(C)CN2CCCCC2)cc1
inactive: SNB-75 5.37 µM | OVCAR-4 10.1 µM | SK-MEL-2 10.7 µM | HCC 2998 15 µM | CCRF-CEM 3.11 µM | HCT-116 10.5 µM | M14 7.31 µM | SK-MEL-5 2.86 µM | A498 6.24 µM | RPMI-8226 3.49 µM | SK-MEL-28 16.4 µM | UO-31 10.3 µM | A549 5.68 µM | CAKI-1 3.78 µM

Cc1ccc(S(=O)OCc2c(C)c(C)c(COS(=O)c3ccc(C)cc3)c(C)c2C)cc1 (stereo not drawn)
inactive: SNB-75 > 100 µM | OVCAR-4 > 100 µM | HCC 2998 > 100 µM | HCT-116 > 100 µM | M14 > 100 µM | SK-MEL-5 > 100 µM | A498 > 100 µM | RPMI-8226 > 100 µM | SK-MEL-28 > 100 µM | UO-31 > 100 µM | A549 > 100 µM | CAKI-1 > 100 µM | SR > 100 µM

CCCN(CCCC(NC(C)=O)C(=O)NCc1ccccc1)C(=O)N(C)N=O (stereo not drawn)
inactive: SNB-75 41.3 µM | OVCAR-4 > 100 µM | SK-MEL-2 > 100 µM | HCC 2998 > 100 µM | CCRF-CEM > 100 µM | HCT-116 > 100 µM | M14 > 100 µM | SK-MEL-5 > 100 µM | A498 > 100 µM | RPMI-8226 > 100 µM | SK-MEL-28 > 100 µM | A549 > 100 µM | CAKI-1 > 100 µM

Oc1ccc(I)c2cccnc12
inactive: OVCAR-4 26.4 µM | SK-MEL-2 11.9 µM | CCRF-CEM 2.42 µM | HCT-116 4.71 µM | M14 10.4 µM | A498 32 µM | RPMI-8226 2.89 µM | SK-MEL-28 40.1 µM | UO-31 6.98 µM | A549 5.52 µM | SR 3.35 µM

C[C@@]12CCCc3coc(c31)C(=O)c1cc3c(cc12)C(=O)C=CC3=O [XESTOQUINONE]
inactive: SNB-75 19.3 µM | OVCAR-4 15.5 µM | SK-MEL-2 15.4 µM | HCC 2998 28.1 µM | CCRF-CEM 2.23 µM | M14 16.1 µM | SK-MEL-5 16.7 µM | A498 56.2 µM | RPMI-8226 5.98 µM | UO-31 16.2 µM | A549 23.7 µM | CAKI-1 14.9 µM

Cc1ccc(C)c(NC2=NC(=O)C(CC(=O)Nc3ccc(Cl)cc3Cl)S2)c1 (stereo not drawn)
inactive: SNB-75 44.7 µM | OVCAR-4 49.2 µM | SK-MEL-2 29.5 µM | HCC 2998 46 µM | CCRF-CEM 41.4 µM | M14 > 100 µM | SK-MEL-5 > 100 µM | A498 28.6 µM | RPMI-8226 > 100 µM | SK-MEL-28 77.6 µM | UO-31 > 100 µM | A549 > 100 µM | CAKI-1 > 100 µM

CCOC(=O)c1nc2ccc(Cl)cc2c2c1Cc1ccccc1-2
inactive: SNB-75 70 µM | OVCAR-4 > 100 µM | SK-MEL-2 > 100 µM | HCC 2998 > 100 µM | HCT-116 > 100 µM | M14 > 100 µM | SK-MEL-5 > 100 µM | RPMI-8226 > 100 µM | SK-MEL-28 > 100 µM | UO-31 > 100 µM | A549 > 100 µM | CAKI-1 > 100 µM | SR > 100 µM

COc1ccc(C(=O)/C(=N/Nc2ccccc2)c2ccc(OC)cc2)cc1
inactive: SNB-75 27 µM | OVCAR-4 > 100 µM | SK-MEL-2 > 100 µM | HCC 2998 > 100 µM | HCT-116 > 100 µM | SK-MEL-5 > 100 µM | RPMI-8226 51.4 µM | SK-MEL-28 > 100 µM | UO-31 > 100 µM | A549 > 100 µM | CAKI-1 > 100 µM

Cc1ccc2c(CC(=O)O)cc(=O)oc2c1
inactive: SNB-75 44.9 µM | OVCAR-4 > 100 µM | SK-MEL-2 > 100 µM | HCC 2998 > 100 µM | CCRF-CEM > 100 µM | HCT-116 > 100 µM | M14 > 100 µM | SK-MEL-5 > 100 µM | A498 > 100 µM | RPMI-8226 > 100 µM | SK-MEL-28 > 100 µM | A549 > 100 µM | CAKI-1 > 100 µM

CCC1C2C=CC(CC2)N1S(=O)(=O)c1ccc(C)cc1 (stereo not drawn)
inactive: SNB-75 > 10 µM | OVCAR-4 31.8 µM | SK-MEL-2 14 µM | CCRF-CEM 22.4 µM | HCT-116 30.9 µM | M14 31 µM | SK-MEL-5 18.4 µM | A498 33.9 µM | RPMI-8226 12.9 µM | UO-31 12.9 µM | A549 28.2 µM | CAKI-1 20.8 µM | SR 22.4 µM
